Experimental data as given in patent US20060057153A1, “Method and composition for the inhibition of mitosis” (priority 2002, published 2006).

How the values were obtained:
[1] = test system: HeLa cells; assay: siRNA depletion in thymidine-synchronized HeLa cells, immunofluorescence staining of metaphase cells, with or without Vinblastine; assay type: cell-based, human; settings: Buffer-transfected cells
Description: To further analyze the mitotic defects apparent in Bsh3-depleted cells, siRNA depletion was performed using thymidine-synchronized cells. Briefly, HeLa cells were blocked by thymidine 40 hr after siRNA transfection. After 20 hr of thymidine treatment, cells were washed and cultured in thymidine free media for 14 hr, followed by immunofluorescence staining analysis using the anti-centromere antibody, ANA-C (Sigma). Chromosomes and mitotic spindles were localized by Hoechst and anti-α-tubulin staining, respectively. […] To distinguish these two possibilities, siRNA depletion and video-microscopy were performed using a HeLa cell line expressing the histone H2B-GFP fusion protein. While the wild-type cells were able to congress and segregate their chromosomes in 45-60 min, siRNA treated cells (30%) took more than 2 hr for the same process due to the fact that some chromosomes were delayed in alignment at the metaphase plate. […] However, only 0.34% of buffer-treated cells remained in metaphase (Table 1).
To confirm this interpretation, it was analyzed whether human Bsh3 depleted cells were more sensitive to Vinblastine (VBL), a microtubule-disrupting drug. It has been shown that a low concentration of VBL (nM) alters microtubule dynamics without depolymerizing microtubules. As a result, it affects chromosome movement during metaphase and delays chromosome congression. In addition Vinblastine disrupts kinetochore tension without affecting spindle-kinetochore attachment.
siRNA depletion using thymidine-synchronized cells, which were released into culture media with different concentrations of VBL for 14 hr, was followed by immunofluorescence staining as described in the previous section.

[2] = test system: HL-60, a promylocytic cell line; assay: Bsh3 expression in HL-60 cells after treatment; assay type: cell-based; settings: HL60 cells treated with the agent
From the text: In addition to being a marker of tumor aggressiveness and treatment potential, Bsh3 expression can be used as a measurement of the effectiveness of anti-tumor therapy. In the Examples, it is shown that HL-60, a promylocytic cell line, had high levels of Bsh3 expression. […] The reduction in expression correlated with the degree of differentiation, the greater the differentiation, the lower the level of Bsh3 expression. Accordingly, Bsh3 expression can be used to measure the effectiveness of anti-tumor treatment: if Bsh3 expression decreases during treatment, the treatment protocol is effective and can be continued, whereas if Bsh3 expression remains unaltered, a different therapeutic regime or protocol needs to be performed.

[3] = test system: S. pombe bir1-46 (Sp287); assay: Growth of bir1-46 on YES plates with thiabendazole; assay type: cell-based; settings: 10 μg/ml TBZ, permissive temperature (28° C.), 3 days
Description: Briefly, to identify the phenotypes of the temperature sensitive allele, bir1-46, Wild-type and bir1-46 (Sp287) were streaked out on YES plates or 10 μg/ml of thiabendazole (TBZ), followed by incubation at either 28° C. or 32° C. for 3 days. Wild-type, bir1-46, and a rad3Δ were grown in YES medium to mid log phase (O.D.595=0.5-0.6) and then plated on YES plates followed by UV irradiation. Plates were cultured at 28° C. with a foil cover for 1 day and without a foil cover for subsequent 4 days. Colony numbers were calculated and survival rates were determined based on control plates, which were not irradiated. bir1-46 was transformed with vector alone (pUR19), pUR19-bir1^+, pUR19-Bsh3^+, or pUR19-pic1^+. Transformants were streaked out on YES plates followed by incubation at either 28° C. or 34° C. for 3 days. To conduct the high-copy suppressor screen, Sp287 (bir-46) was transformed with either a cDNA or genomic DNA library. Transformants were incubated at 28° C. for 20 hr followed by further incubation at 34° C. for five days.
Given that bir1^+ is required for chromosome segregation and cytokinesis, it is plausible that bir1^+ is also involved in mitotic spindle integrity.

## CC[C@]1(O)C[C@@H]2CN(CCc3c([nH]c4ccccc34)[C@@](C(=O)OC)(c3cc4c(cc3OC)N(C)[C@H]3[C@@](O)(C(=O)OC)[C@H](OC(C)=O)[C@]5(CC)C=CCN6CC[C@]43[C@@H]65)C2)C1 [VBL, Vinblastine]
[1]; VBL 0.1 nM for 14 hr
  % of cells in metaphase: 1.5%
[1]; VBL 0.5 nM for 14 hr
  % of cells in metaphase: 1.7%
[1]; VBL 1 nM for 14 hr
  % of cells in metaphase: 13.6%

## CC1=C(/C=C/C(C)=C/C=C/C(C)=C/C(=O)O)C(C)(C)CCC1 [retenoic acid]
[2]
  Bsh3 expression: reduction and elimination of Bsh3 expression

## c1ccc2[nH]c(-c3cscn3)nc2c1 [TBZ, Thiabendazole]
[3]
  growth of bir1-46: failed to grow
